In US20040063770A1, “Method for treating Alzheimer's disease” (Warner-Lambert Company, priority 2000, published 2004):

What follows are compounds tested on Aβ secretion from CHO cells transfected with Swedish mutation Amyloid Precursor Protein (CHO-APPsw) (assay: Aβ secretion inhibition in CHO-APPsw cells, sandwich ELISA). Conditions: CHO, read-out: Effect on Aβ Secretion (Concentration) (IC50).
Type: cell-based
Protocol: This is an […] assay designed to show the ability of test compounds to […]. CHO cells transfected with human AβPP bearing the Swedish mutation AβPP(CHO-AβPPsw) were treated with a farnesyl transferase inhibitor (FTI) (e.g., compounds from Table 1). The assay was carried out as follows:
CHO cells transfected with Swedish mutation Amyloid Precursor Protein (CHO-APPsw) were maintained in Dulbecco's Modified Eagle Medium (DMEM) media supplemented with nonessential amino acids (NEAA, Gibco-BRL Company) and 10% (v/v) heat inactivated Fetal Calf Serum (Hyclone Company), penicillin and streptomycin (Gibco-BRL).
The polyclonal antibodies were purified on a protein G-Sepharose column prior to use. Biotinylated monoclonal antibody 4G8 which recognizes amino acids 17-24 of Aβ (Senetek plc, St. Louis, Mo., USA) was used as the detection antibody. Alkaline phosphatase-conjugated strepavidin (Zymed Laboratories, San Francisco, Calif., USA) was used to bind the biotinylated detection antibody followed by Attophos (JBL Scientific, St. Luis Obispo, Calif., USA), the substrate for alkaline phosphatase. Fluorescence was measured using a Cytofluor plate reader (Perseptive Biosystems, Framingham, Mass., USA) set at 450 nm excitation and 560 emission. Synthetic Aβ40 and Aβ42 peptides used for standard curves were purchased from California Peptide (Napa, Calif., USA).
Work on `O=C1CCCc2c1ccc(O[C@H](Cn1ccnc1)c1ccccc1)c2CCc1ccccc1` [Compound 1, (S) 6-(2-Imidazol-1-yl-1-phenyl-ethoxy)-5-phenethyl-3,4-dihydro-2H-naphthalen-1-one] yielded an IC50 of 0.7 µM.
`O=C1CCCc2cc(O[C@@H](Cn3ccnc3)c3ccccc3)ccc21` [Compound 5, (R) 6-(2-Imidazol-1-yl-1-phenyl-ethoxy)-3,4-dihydro-2H-naphthalen-1-one] gave an IC50 of 1.5 µM.
With `CC(C)OCc1c(OC(Cn2ccnc2)c2ccccc2)ccc2c1CCCC2=O` (centres unmarked) [Compound 7, 6-(2-Imidazol-1-yl-1-phenyl-ethoxy)-5-isopropoxymethyl-3,4-dihydro-2H-naphthalen-1-one] the IC50 was 37.9 µM.
Work on `O=C1CCCc2c1ccc(O[C@H](Cn1ccnc1)c1ccccc1)c2CNc1ccccc1` [Compound 8, (S) 6-(2-Imidazol-1-yl-1-phenyl-ethoxy)-5-phenylaminomethyl-3,4-dihydro-2H-naphthalen-1-one] yielded an IC50 of 7.6 µM.
In the case of `O=C1CCCc2c1ccc(O[C@H](Cn1ccnc1)c1ccccc1)c2CCc1ccc(F)cc1` [Compound 9, (S) 6-(2-Imidazol-1-yl-1-phenyl-ethoxy)-5-[2-(4-fluorophenyl)ethyl]-3,4-dihydro-2H-naphthalen-1-one], the IC50 is reported as 4.5 µM.
Compound `O=C1CCCc2c1ccc(O[C@H](Cn1ccnc1)c1ccccc1)c2CS(=O)(=O)c1ccccc1` [Compound 10, (S) 5-Benzenesulfonylmethyl-6-(2-imidazol-1-yl-1-phenyl-ethoxy)-3,4-dihydro-2H-naphthalen-1-one] has an IC50 of 25.4 µM.
In the case of `O=C1CCCc2c1ccc(O[C@H](Cn1ccnc1)c1ccccc1)c2CCc1ccccn1` [Compound 12, (S) 6-(2-Imidazol-1-yl-1-phenyl-ethoxy)-5-(2-pyridin-2-yl-ethyl)-3,4-dihydro-2H-naphthalen-1-one], the IC50 is reported as 12 µM.
Compound `O=C1CCCc2c1ccc(OC(Cn1ccnc1)c1ccccc1)c2CCc1ccncc1` (centres unmarked) [Compound 13, 6-(2-Imidazol-1-yl-1-phenyl-ethoxy)-5-(2-pyridin-4-yl-ethyl)-3,4-dihydro-2H-naphthalen-1-one] has an IC50 of 11 µM.
In the case of `O=C1CCCc2c1ccc(OCCc1cncn1Cc1ccccc1)c2CCc1ccccc1` [Compound 15, 6-[2-(3-Benzyl-3H-imidazol-4-yl)-ethoxy]-5-phenethyl-3,4-dihydro-2H -naphthalen-1-one; trifluoro-acetate], the IC50 is reported as 1.5 µM.

Same assay, conditions: CHO-APPsw cells, serum free media overnight at 37° C., secreted Aβ by sandwich ELISA; read-out: Effect on Aβ Secretion (Concentration) (IC50)
`O=C1/C(=C/c2cccs2)CCc2cc(OC(Cn3ccnc3)c3ccccc3)ccc21` (racemic) [Compound 3, E-(+/−)6-(2-Imidazol-1-yl-1-phenyl-ethoxy)-2-thiophen-2-ylmethylene-3,4-dihydro-2H-naphthalen-1-one] gave an IC50 of 4.5 µM.
Compound `O=C1CCCc2cc(OC(Cn3ccnc3)c3ccc(Cl)cc3)ccc21` (racemic) [Compound 4, 6-[1-(4-Chloro-phenyl)-2-imidazol-1-yl-ethoxy]-3,4-dihydro-2H-napththalen-1-one racemic] has an IC50 of 25 µM.
For `O=C1CCC(c2ccccc2)c2cc(OC(Cn3ccnc3)c3ccccc3)ccc21` (racemic) [Compound 6, 6-(2-Imidazol-1-yl-1-phenyl-ethoxy)-4-phenyl-3,4-dihydro-2H-naphthalen-1-one racemic], the IC50 was 3.1 µM.
`O=C1CCCc2cc(OCCc3c[nH]cn3)ccc21` [Compound 2, 6-[2-(1H-Imidazol-4-yl)-ethoxy]-3,4-dihydro-2H-naphthalen-1-one] showed an IC50 of 7.6 µM.
With `O=C1CCCc2c1ccc(S[C@H](Cn1ccnc1)c1ccccc1)c2CCc1ccccc1` [Compound 11, (S) 6-(2-Imidazol-1-yl-1-phenyl-ethylsulfanyl)-5-phenethyl-3,4-dihydro-2H-naphthalen-1-one] the IC50 was 1.5 µM.
In the case of `O=C(O)CCC(Oc1ccc2c(c1CCc1ccccc1)CCCC2=O)c1ccccc1` (centres unmarked) [Compound 14, 4-(5-Oxo-1-phenethyl-5,6,7,8-tetrahydro-naphthalen-2-yloxy)-4-phenyl-butyric acid], the IC50 is reported as 13.8 µM.
`CC(C)(CNC(=O)CN(Cc1ccc(OCc2ccccc2)cc1)C(=O)[C@H](Cc1cnc[nH]1)NC(=O)OCc1ccccc1)c1ccccc1` [Compound 16, (S) [1-{(4-Benzyloxy-benzyl)-[(2-methyl-2-phenyl-propycarbamoyl)-methyl]-carbamoyl}-2-(3H-imidazol-4-yl)-ethyl]-carbamic acid benzyl ester] was tested, and the IC50 was 50 µM.
With `Cc1ccc(CN(CC(=O)NCC2(c3ccccc3)CCC2)C(=O)[C@H](Cc2c[nH]cn2)NC(=O)OCc2ccccc2)cc1` [Compound 17, (S) [2-(1H-Imidazol-4-yl)-1-((4-methyl-benzyl)-{[(1-phenyl-cyclobutylmethyl)-carbamoyl]-methyl}-carbamoyl)-ethyl]-carbamic acid benzyl ester] the IC50 was 10 µM.
In the case of `CN1C(=O)CC(c2cccc(Cl)c2)c2cc(C(Nc3cncn3C)c3ccc(Cl)cc3)ccc21` (centres unmarked) [Compound 18, 1-Methyl-4-(3-chlorophenyl)-6-[(4-chlorophenyl)-(1-methylimidazol-5-yl)aminomethyl]-2,3-dihydroquinolin-2-one], the IC50 is reported as 6 µM.
`O=C(CN(Cc1ccc(OCc2ccccc2)cc1)C(=O)[C@H](Cc1c[nH]cn1)NC(=O)OCc1ccccc1)NCCOCc1ccccc1` [Compound 19, (S) [1-{(4-Benzyloxy-benzyl)-[(2-benzyloxy-ethylcarbamoyl)-methyl]-carbamoyl}-2-(1H-imidazol-4-yl)ethyl]-carbamic acid benzyl ester] showed an IC50 of 10 µM.

Same assay, conditions: transfected CHO cells treated with 10 μM compound
For `O=C1CCCc2c1ccc(O[C@H](Cn1ccnc1)c1ccccc1)c2CCc1ccccc1` [Compound 1, (S) 6-(2-Imidazol-1-yl-1-phenyl-ethoxy)-5-phenethyl-3,4-dihydro-2H-naphthalen-1-one], the “fold decrease in secreted Aβ” value was 6.5 fold.
